Experimental data as given in patent US20260200926A1, “TREM2 MODULATORS” (Muna Therapeutics ApS, priority 2022, published 2026).

Molecular target: T1, Human TREM2 (Homo sapiens, UniProt Q9NZC2)
T1 construct: expressed in transfected cells
Assay: Human TREM2 activity: cellular phosphorylation of Syk (AlphaLISA SureFire Ultra p-SYK) in HEK293/DAP12+TREM2 stable cell line
Type: cell-based
Conditions: for Emax: HEK293, maximal response relative to reference agonist example 1B (remaining examples), read-out: Emax; for EC50: phospho-Syk AlphaLISA signal, HEK293/DAP12+TREM2 cells, concentration giving 50% of maximal response, read-out: EC50
Summary of the method: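 The read-out was p-Syk (Tyr525/526), measured by AlphaLISA in lysates of a stable HEK293/DAP12+TREM2 clone. Cells (10,000/well, plated the day before) received compound for 30 min at 37 °C. Dosing used 8 points in quadruplicate, top 100 μM with 1:6 dilution, 0.5% final DMSO.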

T1 sequence (Q9NZC2 19-230): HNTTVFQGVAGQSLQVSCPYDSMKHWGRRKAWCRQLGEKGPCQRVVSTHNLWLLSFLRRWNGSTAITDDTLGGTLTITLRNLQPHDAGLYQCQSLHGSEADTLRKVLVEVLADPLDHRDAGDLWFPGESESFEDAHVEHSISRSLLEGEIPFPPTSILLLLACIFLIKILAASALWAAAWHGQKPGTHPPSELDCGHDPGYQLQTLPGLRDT
T1 sequence (O43914 22-113 partner): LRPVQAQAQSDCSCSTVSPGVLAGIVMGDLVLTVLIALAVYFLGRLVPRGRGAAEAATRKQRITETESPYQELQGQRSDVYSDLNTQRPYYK

| Emax [%] | EC50 [nM] | SMILES |
| --- | --- | --- |
| > 110 | 1 to 10 | Cc1cc([C@@H]2CN(c3cc4c(=O)n(C)c(C)nc4c(-c4ccc(F)cc4F)n3)C[C@H](C)O2)ccn1 (single isomer, unassigned) [Example 182A] |
| < 75 | 100 to 1000 | Cc1cc([C@H]2CN(c3cc4c(=O)n(C)c(C)nc4c(-c4ccc(F)cc4F)n3)C[C@@H](C)O2)ccn1 (single isomer, unassigned) [Example 182B] |
| 75 to 110 | 1 to 10 | C[C@H]1CN(c2nc(-c3ccc(F)cc3F)c3nc(C(F)(F)F)n(C)c(=O)c3n2)C[C@@H](c2cnn(C3CC3)c2)O1 (single isomer, unassigned) [Example 183A] |
| 75 to 110 | < 1 | C[C@@H]1CN(c2nc(-c3ccc(F)cc3F)c3nc(C(F)(F)F)n(C)c(=O)c3n2)C[C@H](c2cnn(C3CC3)c2)O1 (single isomer, unassigned) [Example 183B] |
| 75 to 110 | 1 to 10 | Cc1nc2c(-c3ccc(C(F)(F)F)nc3)nc(N3C[C@@H](c4cnn(C5CC5)c4)O[C@@H](C)C3)cc2c(=O)n1C (single isomer, unassigned) [Example 184A] |
| < 75 | 10 to 100 | Cc1nc2c(-c3ccc(C(F)(F)F)nc3)nc(N3C[C@@H](C)O[C@@H](c4cnn(C5CC5)c4)C3)cc2c(=O)n1C (single isomer, unassigned) [Example 184B] |

Further lines, the compound ahead of its results:

| SMILES | Emax [%] | EC50 [nM] |
| --- | --- | --- |
| Cc1cc([C@@H]2CN(c3nc(-c4ccc(Cl)cc4F)c4nc(C)n(C)c(=O)c4n3)C[C@H](C)O2)ccn1 (single isomer, unassigned) [Example 176A] | 75 to 110 | < 1 |
| Cc1cc([C@H]2CN(c3nc(-c4ccc(Cl)cc4F)c4nc(C)n(C)c(=O)c4n3)C[C@@H](C)O2)ccn1 (single isomer, unassigned) [Example 176B] | 75 to 110 | 1 to 10 |
| Cc1nc2c(-c3ccc(F)cc3F)nc(N3C[C@@H](c4cnn(C5CC5)c4)O[C@@H](C)C3)nc2c(=O)n1C (single isomer, unassigned) [Example 177A] | < 75 | 10 to 100 |
| Cc1nc2c(-c3ccc(F)cc3F)nc(N3C[C@@H](C)O[C@@H](c4cnn(C5CC5)c4)C3)nc2c(=O)n1C (single isomer, unassigned) [Example 177B] | 75 to 110 | 1 to 10 |
| Cc1nc2c(-c3ccc(Cl)cc3F)nc(N3C[C@@H](c4cnn(C5CC5)c4)O[C@@H](C)C3)nc2c(=O)n1C (single isomer, unassigned) [Example 178A] | 75 to 110 | 1 to 10 |
| Cc1nc2c(-c3ccc(Cl)cc3F)nc(N3C[C@@H](C)O[C@@H](c4cnn(C5CC5)c4)C3)nc2c(=O)n1C (single isomer, unassigned) [Example 178B] | 75 to 110 | 1 to 10 |
| Cc1cc([C@@H]2CN(c3nc(-c4ccc(C(F)(F)F)cc4F)c4nc(C)n(C)c(=O)c4n3)C[C@H](C)O2)ccn1 (single isomer, unassigned) [Example 179A] | 75 to 110 | 1 to 10 |
| Cc1cc([C@H]2CN(c3nc(-c4ccc(C(F)(F)F)cc4F)c4nc(C)n(C)c(=O)c4n3)C[C@@H](C)O2)ccn1 (single isomer, unassigned) [Example 179B] | 75 to 110 | < 1 |
| Cc1cc([C@@H]2CN(c3cc4c(=O)n(C)c(C)nc4c(-c4ccc(C(F)F)nc4)n3)CC(C)(C)O2)ccn1 (single isomer, unassigned) [Example 180A] | < 75 | > 1000 |
| Cc1cc([C@H]2CN(c3cc4c(=O)n(C)c(C)nc4c(-c4ccc(C(F)F)nc4)n3)CC(C)(C)O2)ccn1 (single isomer, unassigned) [Example 180B] | < 75 | 10 to 100 |
| Cc1cc([C@@H]2CN(c3cc4c(=O)n(C)c(C)nc4c(-c4ccc(C(F)F)nc4)n3)CC(F)(F)O2)ccn1 (single isomer, unassigned) [Example 181A] | < 75 | 10 to 100 |
| Cc1cc([C@H]2CN(c3cc4c(=O)n(C)c(C)nc4c(-c4ccc(C(F)F)nc4)n3)CC(F)(F)O2)ccn1 (single isomer, unassigned) [Example 181B] | 75 to 110 | 1 to 10 |
